Data: the supplement of paper PMC4862054

system: BT-474; test: normalised viability (% of control), CellTiter-Blue; higher = more viable cells (100 = DMSO, 0 = benzethonium chloride kill control); conditions: incubation time: 72 h
Experimental: (§1)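 DSRT, CellTiter-Blue viability, 72 h incubation. Signal is normalised to DMSO and benzethonium chloride controls. Value is the normalised response at dose 1.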

Compared with `COc1cc(OC2CCN(C)CC2)ccc1Nc1ncc2c(n1)n(C1CCCC1)c(=O)n2C` [AZ 3146] (1 nM), `Nc1cc(C(F)(F)F)c(-c2cc(N3CCOCC3)nc(N3CCOCC3)n2)cn1` [BKM-120] (1 nM) is higher in normalised viability: 98.9% for the first, 116% for the second.

Compared with `CN(C)c1nc(N(C)C)nc(N(C)C)n1` [Altretamine] (1 nM), `O=C(/C=C/c1cccc(S(=O)(=O)Nc2ccccc2)c1)NO` [Belinostat] (1 nM) is lower in normalised viability: 112% for the first, 106% for the second.

First: O=P1(N(CCCl)CCCl)NCCCO1 (stereo not given) [Cyclophosphamide] (4 nM)
Second: S=P(N1CC1)(N1CC1)N1CC1 [Thio-TEPA] (10 nM)
The normalised viability of the first is lower: 97% for the first, 100% for the second.

system: SK-BR-3; test: as above; conditions: incubation time: 72 h
Experimental: as §1

Going from `N#Cc1ccc(COC[C@H]2O[C@@H](n3c(NCc4ccc(Cl)c(Cl)c4)nc4c(N)ncnc43)[C@H](O)[C@@H]2O)cc1` (1 nM) to `COc1cc(OC2CCN(C)CC2)ccc1Nc1ncc2c(n1)n(C1CCCC1)c(=O)n2C` [AZ 3146] (1 nM), the normalised viability rises from 91.4% to 107%.

First: CN(C)c1nc(N(C)C)nc(N(C)C)n1 [Altretamine] (1 nM)
Second: Nc1cc(C(F)(F)F)c(-c2cc(N3CCOCC3)nc(N3CCOCC3)n2)cn1 [BKM-120] (1 nM)
The normalised viability of the first is lower: 87.6% for the first, 99.7% for the second.

Compared with `O=C(/C=C/c1cccc(S(=O)(=O)Nc2ccccc2)c1)NO` [Belinostat] (1 nM), `O=P1(N(CCCl)CCCl)NCCCO1` (stereo not given) [Cyclophosphamide] (4 nM) is higher in normalised viability: 91.5% for the first, 101% for the second.

`S=P(N1CC1)(N1CC1)N1CC1` [Thio-TEPA] (10 nM) gave a normalised viability of 92.1%.

system: HCC1143; test: as above; conditions: incubation time: 72 h
Experimental: as §1

Compared with `N#Cc1ccc(COC[C@H]2O[C@@H](n3c(NCc4ccc(Cl)c(Cl)c4)nc4c(N)ncnc43)[C@H](O)[C@@H]2O)cc1` (1 nM), `COc1cc(OC2CCN(C)CC2)ccc1Nc1ncc2c(n1)n(C1CCCC1)c(=O)n2C` [AZ 3146] (1 nM) is higher in normalised viability: 99.9% for the first, 128% for the second.

Compared with `CN(C)c1nc(N(C)C)nc(N(C)C)n1` [Altretamine] (1 nM), `Nc1cc(C(F)(F)F)c(-c2cc(N3CCOCC3)nc(N3CCOCC3)n2)cn1` [BKM-120] (1 nM) is lower in normalised viability: 102% for the first, 88.4% for the second.

Compared with `O=C(/C=C/c1cccc(S(=O)(=O)Nc2ccccc2)c1)NO` [Belinostat] (1 nM), `O=P1(N(CCCl)CCCl)NCCCO1` (stereo not given) [Cyclophosphamide] (4 nM) is lower in normalised viability: 107% for the first, 96.8% for the second.

In the case of `S=P(N1CC1)(N1CC1)N1CC1` [Thio-TEPA] (10 nM), the normalised viability is reported as 97.9%.

system: MDA-MB-468; test: as above; conditions: incubation time: 72 h
Experimental: as §1

First: N#Cc1ccc(COC[C@H]2O[C@@H](n3c(NCc4ccc(Cl)c(Cl)c4)nc4c(N)ncnc43)[C@H](O)[C@@H]2O)cc1 (1 nM)
Second: COc1cc(OC2CCN(C)CC2)ccc1Nc1ncc2c(n1)n(C1CCCC1)c(=O)n2C [AZ 3146] (1 nM)
The normalised viability of the first is lower: 95.5% for the first, 105% for the second.

First: CN(C)c1nc(N(C)C)nc(N(C)C)n1 [Altretamine] (1 nM)
Second: Nc1cc(C(F)(F)F)c(-c2cc(N3CCOCC3)nc(N3CCOCC3)n2)cn1 [BKM-120] (1 nM)
The normalised viability of the first is lower: 93.1% for the first, 96.6% for the second.

First: O=C(/C=C/c1cccc(S(=O)(=O)Nc2ccccc2)c1)NO [Belinostat] (1 nM)
Second: O=P1(N(CCCl)CCCl)NCCCO1 (stereo not given) [Cyclophosphamide] (4 nM)
The normalised viability of the first is higher: 103% for the first, 98.9% for the second.

`S=P(N1CC1)(N1CC1)N1CC1` [Thio-TEPA] (10 nM) showed a normalised viability of 107%.

system: MFM-223; test: as above; conditions: incubation time: 72 h
Experimental: as §1

Compared with `N#Cc1ccc(COC[C@H]2O[C@@H](n3c(NCc4ccc(Cl)c(Cl)c4)nc4c(N)ncnc43)[C@H](O)[C@@H]2O)cc1` (1 nM), `COc1cc(OC2CCN(C)CC2)ccc1Nc1ncc2c(n1)n(C1CCCC1)c(=O)n2C` [AZ 3146] (1 nM) is higher in normalised viability: 92.5% for the first, 109% for the second.

Going from `CN(C)c1nc(N(C)C)nc(N(C)C)n1` [Altretamine] (1 nM) to `Nc1cc(C(F)(F)F)c(-c2cc(N3CCOCC3)nc(N3CCOCC3)n2)cn1` [BKM-120] (1 nM), the normalised viability falls from 95.1% to 93%.

First: O=C(/C=C/c1cccc(S(=O)(=O)Nc2ccccc2)c1)NO [Belinostat] (1 nM)
Second: O=P1(N(CCCl)CCCl)NCCCO1 (stereo not given) [Cyclophosphamide] (4 nM)
The normalised viability of the first is higher: 93.4% for the first, 85.1% for the second.

In the case of `S=P(N1CC1)(N1CC1)N1CC1` [Thio-TEPA] (10 nM), the normalised viability is reported as 101%.

system: MDA-MB-231; test: as above; conditions: incubation time: 72 h
Experimental: as §1

Compared with `N#Cc1ccc(COC[C@H]2O[C@@H](n3c(NCc4ccc(Cl)c(Cl)c4)nc4c(N)ncnc43)[C@H](O)[C@@H]2O)cc1` (1 nM), `COc1cc(OC2CCN(C)CC2)ccc1Nc1ncc2c(n1)n(C1CCCC1)c(=O)n2C` [AZ 3146] (1 nM) is lower in normalised viability: 102% for the first, 92.2% for the second.

Compared with `CN(C)c1nc(N(C)C)nc(N(C)C)n1` [Altretamine] (1 nM), `Nc1cc(C(F)(F)F)c(-c2cc(N3CCOCC3)nc(N3CCOCC3)n2)cn1` [BKM-120] (1 nM) is higher in normalised viability: 96% for the first, 110% for the second.

Going from `O=C(/C=C/c1cccc(S(=O)(=O)Nc2ccccc2)c1)NO` [Belinostat] (1 nM) to `O=P1(N(CCCl)CCCl)NCCCO1` (stereo not given) [Cyclophosphamide] (4 nM), the normalised viability falls from 102% to 96.9%.

`S=P(N1CC1)(N1CC1)N1CC1` [Thio-TEPA] (10 nM) gave a normalised viability of 94.8%.

system: CAL-51; test: as above; conditions: incubation time: 72 h
Experimental: as §1

First: N#Cc1ccc(COC[C@H]2O[C@@H](n3c(NCc4ccc(Cl)c(Cl)c4)nc4c(N)ncnc43)[C@H](O)[C@@H]2O)cc1 (1 nM)
Second: COc1cc(OC2CCN(C)CC2)ccc1Nc1ncc2c(n1)n(C1CCCC1)c(=O)n2C [AZ 3146] (1 nM)
The normalised viability of the first is higher: 111% for the first, 92.4% for the second.

Compared with `CN(C)c1nc(N(C)C)nc(N(C)C)n1` [Altretamine] (1 nM), `Nc1cc(C(F)(F)F)c(-c2cc(N3CCOCC3)nc(N3CCOCC3)n2)cn1` [BKM-120] (1 nM) is lower in normalised viability: 105% for the first, 98% for the second.

Compared with `O=C(/C=C/c1cccc(S(=O)(=O)Nc2ccccc2)c1)NO` [Belinostat] (1 nM), `O=P1(N(CCCl)CCCl)NCCCO1` (stereo not given) [Cyclophosphamide] (4 nM) is higher in normalised viability: 102% for the first, 105% for the second.

For `S=P(N1CC1)(N1CC1)N1CC1` [Thio-TEPA] (10 nM), the normalised viability was 94%.

system: HCC1599; test: as above; conditions: incubation time: 72 h
Experimental: as §1

First: N#Cc1ccc(COC[C@H]2O[C@@H](n3c(NCc4ccc(Cl)c(Cl)c4)nc4c(N)ncnc43)[C@H](O)[C@@H]2O)cc1 (1 nM)
Second: COc1cc(OC2CCN(C)CC2)ccc1Nc1ncc2c(n1)n(C1CCCC1)c(=O)n2C [AZ 3146] (1 nM)
The normalised viability of the first is lower: 109% for the first, 126% for the second.

First: CN(C)c1nc(N(C)C)nc(N(C)C)n1 [Altretamine] (1 nM)
Second: Nc1cc(C(F)(F)F)c(-c2cc(N3CCOCC3)nc(N3CCOCC3)n2)cn1 [BKM-120] (1 nM)
The normalised viability of the first is higher: 86.3% for the first, 82.8% for the second.

Going from `O=C(/C=C/c1cccc(S(=O)(=O)Nc2ccccc2)c1)NO` [Belinostat] (1 nM) to `O=P1(N(CCCl)CCCl)NCCCO1` (stereo not given) [Cyclophosphamide] (4 nM), the normalised viability falls from 97.1% to 81.6%.

Molecule `S=P(N1CC1)(N1CC1)N1CC1` [Thio-TEPA] (10 nM) has a normalised viability of 95.7%.
